# Source: ChEMBL document CHEMBL5291721, “A preclinical secondary pharmacology resource illuminates target-adverse drug reaction associations of marketed drugs” (Nat Commun, 2023)
# What was measured:
# [1] = target: T1, Alpha-2A adrenergic receptor (Homo sapiens, UniProt P08913); format: functional, cell-based
# T1 sequence (P08913 whole entry): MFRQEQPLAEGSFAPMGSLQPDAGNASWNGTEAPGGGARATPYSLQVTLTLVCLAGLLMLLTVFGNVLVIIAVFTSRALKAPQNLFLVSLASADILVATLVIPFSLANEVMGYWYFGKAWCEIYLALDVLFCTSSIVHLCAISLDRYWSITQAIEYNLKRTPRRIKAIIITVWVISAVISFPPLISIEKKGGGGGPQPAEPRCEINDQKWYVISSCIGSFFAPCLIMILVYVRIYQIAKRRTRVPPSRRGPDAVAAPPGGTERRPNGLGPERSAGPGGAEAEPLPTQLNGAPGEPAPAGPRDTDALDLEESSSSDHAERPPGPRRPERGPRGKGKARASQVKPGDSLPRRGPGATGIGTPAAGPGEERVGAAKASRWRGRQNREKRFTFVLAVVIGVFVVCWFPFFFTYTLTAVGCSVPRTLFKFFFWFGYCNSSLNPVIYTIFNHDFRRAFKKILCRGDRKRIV
# [2] = target: T2, Gastrin/cholecystokinin type B receptor (Homo sapiens, UniProt P32239)
# T2 sequence (P32239 whole entry): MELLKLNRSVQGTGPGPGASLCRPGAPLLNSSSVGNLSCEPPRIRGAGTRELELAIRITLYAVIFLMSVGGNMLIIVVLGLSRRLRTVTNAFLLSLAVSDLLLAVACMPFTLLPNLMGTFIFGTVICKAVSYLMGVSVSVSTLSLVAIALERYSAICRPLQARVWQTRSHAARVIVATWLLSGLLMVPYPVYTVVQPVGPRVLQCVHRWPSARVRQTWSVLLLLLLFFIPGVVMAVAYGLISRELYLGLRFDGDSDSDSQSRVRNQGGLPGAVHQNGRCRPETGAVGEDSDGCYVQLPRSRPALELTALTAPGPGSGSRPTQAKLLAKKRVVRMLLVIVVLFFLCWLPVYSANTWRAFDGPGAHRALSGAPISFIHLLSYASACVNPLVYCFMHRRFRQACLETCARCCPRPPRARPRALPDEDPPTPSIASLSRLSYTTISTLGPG
# D(1A) dopamine receptor = D(1A) dopamine receptor (Homo sapiens, UniProt P21728); format: functional, cell-based
# [3] = target: Gamma-aminobutyric acid receptor subunit alpha-1 (Rattus norvegicus, UniProt P62813); format: functional
# Melanocortin receptor 3 = Melanocortin receptor 3 (Homo sapiens, UniProt P41968)
# Glucocorticoid receptor = target: T3, Glucocorticoid receptor (Homo sapiens, UniProt P04150)
# T3 sequence (P04150 whole entry): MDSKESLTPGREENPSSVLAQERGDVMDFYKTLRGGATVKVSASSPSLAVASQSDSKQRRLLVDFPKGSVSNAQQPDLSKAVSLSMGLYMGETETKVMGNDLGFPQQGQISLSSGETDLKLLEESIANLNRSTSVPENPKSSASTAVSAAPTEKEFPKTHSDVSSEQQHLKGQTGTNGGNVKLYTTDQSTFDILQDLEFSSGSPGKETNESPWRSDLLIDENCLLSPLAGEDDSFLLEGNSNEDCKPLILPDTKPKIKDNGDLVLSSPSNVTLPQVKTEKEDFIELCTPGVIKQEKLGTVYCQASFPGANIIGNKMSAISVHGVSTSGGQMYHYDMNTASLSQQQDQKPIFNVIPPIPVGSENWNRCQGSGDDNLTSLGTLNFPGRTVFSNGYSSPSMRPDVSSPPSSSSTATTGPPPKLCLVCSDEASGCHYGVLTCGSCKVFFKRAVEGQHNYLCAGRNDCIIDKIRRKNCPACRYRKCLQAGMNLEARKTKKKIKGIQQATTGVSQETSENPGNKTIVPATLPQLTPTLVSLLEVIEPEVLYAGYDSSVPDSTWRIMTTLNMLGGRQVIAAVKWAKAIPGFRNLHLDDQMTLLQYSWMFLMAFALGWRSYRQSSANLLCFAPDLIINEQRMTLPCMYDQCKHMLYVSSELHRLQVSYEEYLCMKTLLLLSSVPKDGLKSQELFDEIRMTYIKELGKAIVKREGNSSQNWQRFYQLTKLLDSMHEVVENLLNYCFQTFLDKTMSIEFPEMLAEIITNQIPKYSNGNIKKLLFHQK
# [4] = target: 3',5'-cyclic-AMP phosphodiesterase 4D (Homo sapiens, UniProt Q08499); format: functional
# Progesterone receptor = target: T4, Progesterone receptor (Homo sapiens, UniProt P06401); format: functional
# T4 sequence (P06401 whole entry): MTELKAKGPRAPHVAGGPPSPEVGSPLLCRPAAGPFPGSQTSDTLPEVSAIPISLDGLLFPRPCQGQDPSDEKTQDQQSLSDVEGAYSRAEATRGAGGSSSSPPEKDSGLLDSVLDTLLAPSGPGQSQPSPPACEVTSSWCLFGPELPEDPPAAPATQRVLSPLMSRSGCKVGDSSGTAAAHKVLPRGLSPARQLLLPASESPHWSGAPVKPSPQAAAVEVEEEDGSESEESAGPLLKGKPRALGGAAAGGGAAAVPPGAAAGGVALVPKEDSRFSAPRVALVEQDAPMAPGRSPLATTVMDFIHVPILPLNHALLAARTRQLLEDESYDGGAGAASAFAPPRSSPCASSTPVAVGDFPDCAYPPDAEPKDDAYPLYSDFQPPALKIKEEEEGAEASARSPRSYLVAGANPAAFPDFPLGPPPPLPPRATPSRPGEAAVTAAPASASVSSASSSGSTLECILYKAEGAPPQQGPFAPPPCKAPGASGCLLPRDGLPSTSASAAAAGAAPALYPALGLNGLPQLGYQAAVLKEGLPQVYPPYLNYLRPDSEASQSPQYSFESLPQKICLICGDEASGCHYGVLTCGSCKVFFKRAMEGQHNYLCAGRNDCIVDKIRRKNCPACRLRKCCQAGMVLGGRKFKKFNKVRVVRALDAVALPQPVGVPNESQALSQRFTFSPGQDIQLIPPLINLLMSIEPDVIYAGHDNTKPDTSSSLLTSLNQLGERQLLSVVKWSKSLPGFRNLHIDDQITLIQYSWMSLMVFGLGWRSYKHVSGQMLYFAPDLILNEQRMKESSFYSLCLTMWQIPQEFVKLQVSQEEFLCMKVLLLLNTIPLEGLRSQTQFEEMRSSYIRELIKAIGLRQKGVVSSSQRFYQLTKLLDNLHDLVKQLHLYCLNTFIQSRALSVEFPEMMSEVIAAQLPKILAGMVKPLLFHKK
# [5] = target: Sodium-dependent dopamine transporter (Homo sapiens, UniProt Q01959)
# [6] = target: Sodium-dependent serotonin transporter (Homo sapiens, UniProt P31645)
# Also: assay procedure not described here.
# Sequence of Sodium-dependent serotonin transporter (P31645 whole entry): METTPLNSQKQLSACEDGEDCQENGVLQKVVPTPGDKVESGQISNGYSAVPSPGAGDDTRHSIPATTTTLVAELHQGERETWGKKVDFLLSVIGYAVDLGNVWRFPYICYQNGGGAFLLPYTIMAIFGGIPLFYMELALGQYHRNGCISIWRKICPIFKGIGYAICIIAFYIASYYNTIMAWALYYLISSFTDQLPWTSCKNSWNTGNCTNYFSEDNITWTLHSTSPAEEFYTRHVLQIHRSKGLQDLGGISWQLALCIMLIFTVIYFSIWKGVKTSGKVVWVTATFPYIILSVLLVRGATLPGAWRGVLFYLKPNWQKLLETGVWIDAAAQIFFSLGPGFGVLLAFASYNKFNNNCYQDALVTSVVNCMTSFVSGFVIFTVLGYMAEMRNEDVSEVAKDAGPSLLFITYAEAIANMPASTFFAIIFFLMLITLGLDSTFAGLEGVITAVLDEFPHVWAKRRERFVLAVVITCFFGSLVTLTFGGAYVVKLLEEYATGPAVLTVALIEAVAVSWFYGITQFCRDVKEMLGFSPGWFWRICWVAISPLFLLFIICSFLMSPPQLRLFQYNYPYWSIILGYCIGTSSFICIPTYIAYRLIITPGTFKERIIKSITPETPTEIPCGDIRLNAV
# Sequence of Sodium-dependent dopamine transporter (Q01959 whole entry): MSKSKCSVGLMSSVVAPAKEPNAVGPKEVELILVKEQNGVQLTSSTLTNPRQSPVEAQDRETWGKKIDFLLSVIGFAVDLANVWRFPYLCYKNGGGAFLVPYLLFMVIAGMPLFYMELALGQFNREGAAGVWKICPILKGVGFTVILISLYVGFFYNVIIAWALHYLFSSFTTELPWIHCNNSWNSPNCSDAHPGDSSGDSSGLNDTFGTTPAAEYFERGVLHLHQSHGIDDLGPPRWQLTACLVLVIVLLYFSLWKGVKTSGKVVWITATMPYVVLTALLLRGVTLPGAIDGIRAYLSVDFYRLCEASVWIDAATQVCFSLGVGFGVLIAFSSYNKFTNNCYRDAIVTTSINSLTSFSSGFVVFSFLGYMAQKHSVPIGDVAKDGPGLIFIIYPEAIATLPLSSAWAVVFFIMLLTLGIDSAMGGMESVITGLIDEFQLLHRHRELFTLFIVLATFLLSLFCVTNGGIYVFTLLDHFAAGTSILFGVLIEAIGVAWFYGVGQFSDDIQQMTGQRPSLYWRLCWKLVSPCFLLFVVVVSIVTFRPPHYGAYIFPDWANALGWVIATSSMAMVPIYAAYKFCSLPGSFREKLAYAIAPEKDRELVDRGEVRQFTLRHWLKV
# Sequence of 3',5'-cyclic-AMP phosphodiesterase 4D (Q08499 whole entry): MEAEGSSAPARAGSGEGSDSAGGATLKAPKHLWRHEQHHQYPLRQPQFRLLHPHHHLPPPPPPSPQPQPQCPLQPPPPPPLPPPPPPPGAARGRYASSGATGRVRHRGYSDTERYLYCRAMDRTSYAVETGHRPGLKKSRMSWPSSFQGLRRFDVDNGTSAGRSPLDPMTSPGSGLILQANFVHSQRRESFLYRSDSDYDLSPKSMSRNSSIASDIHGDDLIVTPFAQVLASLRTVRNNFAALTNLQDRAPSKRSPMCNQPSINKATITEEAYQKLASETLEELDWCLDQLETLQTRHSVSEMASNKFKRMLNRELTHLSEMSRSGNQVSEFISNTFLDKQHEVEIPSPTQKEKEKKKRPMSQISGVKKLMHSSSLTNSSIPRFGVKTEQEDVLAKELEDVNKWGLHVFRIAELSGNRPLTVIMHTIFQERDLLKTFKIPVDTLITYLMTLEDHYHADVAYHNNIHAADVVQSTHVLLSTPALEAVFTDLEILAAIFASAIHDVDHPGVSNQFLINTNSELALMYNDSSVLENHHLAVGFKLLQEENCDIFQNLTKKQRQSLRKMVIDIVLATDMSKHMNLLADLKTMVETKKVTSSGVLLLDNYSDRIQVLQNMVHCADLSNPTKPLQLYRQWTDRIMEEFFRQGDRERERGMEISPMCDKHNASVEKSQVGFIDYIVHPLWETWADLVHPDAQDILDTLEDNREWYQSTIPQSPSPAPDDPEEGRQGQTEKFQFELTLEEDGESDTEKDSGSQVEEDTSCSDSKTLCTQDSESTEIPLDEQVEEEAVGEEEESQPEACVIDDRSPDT
# Sequence of Melanocortin receptor 3 (P41968 whole entry): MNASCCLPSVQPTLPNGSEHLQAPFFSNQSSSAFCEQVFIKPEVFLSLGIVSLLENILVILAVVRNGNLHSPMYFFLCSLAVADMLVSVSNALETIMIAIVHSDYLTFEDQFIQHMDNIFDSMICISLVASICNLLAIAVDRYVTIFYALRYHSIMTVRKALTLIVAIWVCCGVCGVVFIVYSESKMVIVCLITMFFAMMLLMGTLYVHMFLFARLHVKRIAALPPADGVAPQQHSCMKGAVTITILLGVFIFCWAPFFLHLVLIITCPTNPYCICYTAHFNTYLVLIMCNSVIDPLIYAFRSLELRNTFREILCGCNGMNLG
# Sequence of D(1A) dopamine receptor (P21728 whole entry): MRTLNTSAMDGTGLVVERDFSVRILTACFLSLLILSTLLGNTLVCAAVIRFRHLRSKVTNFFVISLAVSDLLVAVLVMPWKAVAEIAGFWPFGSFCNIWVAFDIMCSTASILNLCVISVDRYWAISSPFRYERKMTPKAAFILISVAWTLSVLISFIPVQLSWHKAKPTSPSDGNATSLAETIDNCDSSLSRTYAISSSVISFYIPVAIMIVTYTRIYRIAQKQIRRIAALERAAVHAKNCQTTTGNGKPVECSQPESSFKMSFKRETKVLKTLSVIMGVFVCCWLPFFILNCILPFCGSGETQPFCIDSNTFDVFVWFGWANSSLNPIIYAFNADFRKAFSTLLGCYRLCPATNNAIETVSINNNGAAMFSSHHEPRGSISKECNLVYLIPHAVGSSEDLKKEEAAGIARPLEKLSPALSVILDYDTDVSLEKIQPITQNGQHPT
# Sequence of Gamma-aminobutyric acid receptor subunit alpha-1 (P62813 whole entry): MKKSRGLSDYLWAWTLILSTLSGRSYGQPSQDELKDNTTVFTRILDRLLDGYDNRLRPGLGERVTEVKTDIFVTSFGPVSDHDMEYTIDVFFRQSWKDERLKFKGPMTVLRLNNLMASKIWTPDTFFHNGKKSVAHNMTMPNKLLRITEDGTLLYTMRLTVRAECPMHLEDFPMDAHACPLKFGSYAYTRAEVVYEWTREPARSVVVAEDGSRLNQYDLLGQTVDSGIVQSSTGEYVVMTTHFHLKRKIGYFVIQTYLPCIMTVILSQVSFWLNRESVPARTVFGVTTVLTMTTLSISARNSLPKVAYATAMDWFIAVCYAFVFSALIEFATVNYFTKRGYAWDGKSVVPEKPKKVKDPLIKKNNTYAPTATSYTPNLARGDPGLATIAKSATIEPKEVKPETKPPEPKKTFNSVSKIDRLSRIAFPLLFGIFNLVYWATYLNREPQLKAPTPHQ
SMILES,AC50 [1] [µM],AC50 [2] [µM],AC50 (D(1A) dopamine receptor) [µM],AC50 [3] [µM],AC50 (Melanocortin receptor 3) [µM],AC50 (Glucocorticoid receptor) [µM],AC50 [4] [µM],AC50 (Progesterone receptor) [µM],AC50 [5] [µM],AC50 [6] [µM]
O=C(C[S+]([O-])C(c1ccccc1)c1ccccc1)NO (stereo not given),> 30,> 30,> 30,> 30,> 30,> 30,8.9,> 30,9.4,> 30
C=C1CC[C@@]2(O)[C@H]3Cc4ccc(O)c5c4[C@@]2(CCN3CC2CC2)[C@H]1O5,> 30,> 30,> 30,> 30,> 30,> 30,> 30,> 30,> 30,> 30
Nc1ncnc2c1ncn2[C@@H]1O[C@H](COP(=O)(O)O)[C@@H](O)[C@H]1O [ADENOSINE PHOSPHATE],> 30,> 30,> 30,> 30,> 30,> 30,14,> 30,> 30,> 30
CCC(C(=O)O)c1ccc(CC(C)C)cc1 (stereo not given) [BUTIBUFEN],> 30,> 30,> 30,> 30,> 30,> 30,> 30,> 30,> 30,> 30
CCOC(=O)[C@H](CCc1ccccc1)N[C@H]1CCCN2CCC[C@@H](C(=O)O)N2C1=O [CILAZAPRIL],> 30,> 30,> 30,> 30,> 30,> 30,> 30,> 30,> 30,> 30
CCCCOc1cc(C(=O)NCCN(CC)CC)c2ccccc2n1 [DIBUCAINE],> 10,> 30,> 10,> 30,> 30,> 10,> 30,> 10,> 10,> 10
CCCCCCCCCCCC[N+](C)(C)CCOc1ccccc1 [DOMIPHEN],13,> 10,> 30,> 30,–,18,12,4.5,2.5,1.7
O=C1CN=C(c2ccccc2)c2cc(Cl)ccc2N1CC(F)(F)F [HALAZEPAM],> 30,> 30,> 30,0.506,> 30,> 30,> 30,> 30,> 30,> 30
CCCCCN(C)CCC(O)(P(=O)(O)O)P(=O)(O)O [IBANDRONIC ACID],> 30,> 30,> 30,> 30,> 30,> 30,> 30,> 30,> 30,> 30
C1=Cc2cccc(OCC3CNCCO3)c2C1 (stereo not given) [INDELOXAZINE],> 30,> 30,> 30,> 30,> 30,> 30,> 30,> 30,12,0.047
COC(=O)C1=C(C)NC(C)=C(C(=O)OC(C)C)C1c1cccc2nonc12 (stereo not given) [ISRADIPINE],> 10,34.1,> 30,> 10,> 30,15.1,9,> 30,26,> 30
COc1ccc(C(=O)NCc2ccc(OCCN(C)C)cc2)cc1OC [ITOPRIDE],> 30,> 30,> 30,> 30,> 30,> 30,> 30,> 30,> 30,> 30
O=C(O)Cc1cn(-c2ccccc2)nc1-c1ccc(Cl)cc1 [LONAZOLAC],> 30,> 10,> 30,> 30,> 30,> 30,> 30,> 30,> 30,> 30
CN1CCC2=C(C1)C(c1ccccc1)c1ccccc12 (stereo not given) [PHENINDAMINE],> 10,–,> 10,> 10,> 10,> 30,8.7,> 30,> 30,> 30
CN1C(=O)CC(c2ccccc2)C1=O (stereo not given) [PHENSUXIMIDE],> 10,–,> 10,> 10,> 10,> 10,> 30,> 10,> 10,> 10
CC(=O)NS(=O)(=O)c1ccc(N)cc1 [SULFACETAMIDE],> 10,–,> 10,> 10,> 10,> 10,> 30,> 10,> 10,> 10
Cc1ccc(-c2nc3ccc(C)cn3c2CC(=O)N(C)C)cc1 [ZOLPIDEM],> 30,> 30,> 30,–,> 30,> 30,> 30,> 30,> 30,> 30
